# From EP4385508A1, “FURAN FATTY ACIDS FOR ENHANCING MUSCLE MASS” (Centre de Coopération Internationale en Recherche …, priority 2022, dated 2024)
# Legend:
# mTOR (Ser2448) = assay: mTOR phosphorylation by Western blot in C2C12 myotubes; format: cell-based, Mouse
# Method: Mouse myoblasts of the C2C12 cell line (ATCC) were seeded at a plating density of 7000 cells/cm2 in 6-well plates. They were grown in DMEM high glucose (4.5g/l) supplemented with gentamycin (50 µg/mL), amphotericin (50 µg/mL), and fetal calf serum (10%). Terminal differentiation was induced at cell confluence by lowering the medium serum concentration (0.5%).
# When indicated, FuFA-F2 was added to the culture medium at the indicated concentration. For the differentiation studies, FuFA-F2 was added at the confluence at the same time as the change in media condition. Three doses of FuFA-F2 were studied at a final concentration of 1, 10, or 50 µM. Human insulin was used at a concentration of 100 nM.
# Protein levels were assessed by Western blotting. Total proteins were measured using the Bio-Rad protein assay (Hercules, CA, USA) according to the manufacturer's instructions. Total proteins were lysed in RIPA buffer (20mM Tris, 150mM NaCl, 1mM EDTA, 1% NP40, pH 7.5 + complete cocktail protease inhibitors + Pierce phosphatase inhibitors tablet). 40 µg of cell extracts were loaded and blotted onto a nitrocellulose membrane. The membranes were washed, blocked with 5% nonfat milk and incubated in primary antibody overnight at 4°C. The membranes were then washed in TBS-Tween (10mM Tris, 140mM NaCl, and 0.2% Tween-20), incubated with the appropriate secondary antibody coupled to horseradish peroxidase, and washed again in TBS-Tween. […] Touch Software (version 5.2.1) (Hercules, CA, USA). […]
# It is shown that FuFA-F2 increased protein accretion in myotubes. Protein homeostasis is determined by the dynamic balance between protein synthesis and degradation. Protein synthesis was evaluated by measuring the phosphorylation of Akt (Ser473), mTOR (Ser2448) and 4E-BP1 (Thr37/46), which are major regulators of translation and protein synthesis. […]
# myosin heavy chains = assay: Myosin heavy chain gene expression in quadriceps of supplemented C57Bl6 mice; format: in vivo; conditions: 20mg/kg oral gavage
# Method: Male C57Bl/6J wild-type mice were obtained from Janvier at 12 weeks of age and were randomly assigned to one of the two groups based on body weight. Mice were housed 2 per cage and maintained on a 12-hour light/dark cycle (lights on at 7:30 pm). Food and water were provided ad libitum. Enrichment (nesting cotton squares) was provided in each cage. Mice were treated once daily by oral gavage with vehicle (50% PEG-400, 0.5% Tween 80, and 49.5% distilled water) or FuFA-F2 (20 mg/kg). All animal experiments were performed according to European directives (86/609/CEE and 2010/63/CEE) and approved by the regional animal experimentation ethics committe: Région Languedoc-Roussillon (No36). Our institutional guidelines for the care and use of laboratory animals were observed. […]
# The PCR overall efficiency (E) was calculated from the slopes of the standard curves according to the equation E = [10^(-1/slope)] - 1, and this value was higher than 95% for all assays. The relative abundance of each sample was then normalized according to the equation: relative quantity = 2^- […]Ct. All of the experiments were performed according to the minimum information for publication of quantitative real-time PCR experiment (MIQE) guidelines (Bustin et al., 2009, Clin Chem, Vol. 55(4) : 611-622; Schmittgen et al., 2008, Net Protoc, Vol. 3(6) : 1101-1108). […]
structure (smiles),measurement,setting,value
CCCCCc1cc(C)c(CCCCCCCCC(=O)O)o1 [FuFA-F2],mTOR phosphorylation at Ser2448,"mTOR (Ser2448); 3-day pretreatment, 2 hours low-glucose medium, then treatment for 30 minutes, insulin alone 100 nM",significant increase
same,mTOR phosphorylation,"mTOR (Ser2448); high glucose medium, 3 days, with or without FuFA-F2",no difference
same,rapid effect on mTOR phosphorylation,"mTOR (Ser2448); without pretreatment, 30 min incubation after low-glucose medium",not observed
same,MyHCIIa expression at the expense of MyHCIIb,myosin heavy chains,trend towards an increase
same,expression of the different myosin heavy chains,myosin heavy chains; treated vs not treated,did not indicate any significant difference
